According to ChEMBL document CHEMBL1201862, “PubChem BioAssay data set” (2004):
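Cells were grown in 96-well plates and exposed to each compound for 48 hours at five concentrations; endpoints were interpolated linearly between bracketing concentrations, or set to the highest concentration if not reached. Abbreviation: GI50, concentration required for 50% inhibition of growth.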 The source made the active and inactive calls. Cut-off read from the data, not from the text of the source: active = GI50 up to about 1.1 µM and inactive = higher.

Tests used:
Assay in all cases: growth of human tumour cells (NCI), 48 h
786-0 = system: 786-0
A498 = system: A498
A549 = system: A549
ACHN = system: ACHN
BT-549 = system: BT-549
CAKI-1 = system: CAKI-1
CCRF-CEM = system: CCRF-CEM
COLO 205 = system: COLO 205
DU-145 = system: DU-145
EKVX = system: EKVX
HCT-116 = system: HCT-116
HCT-15 = system: HCT-15
HL-60 = system: HL-60
HOP-62 = system: HOP-62
HOP-92 = system: HOP-92
HT-29 = system: HT-29
Hs-578T = system: Hs-578T
IGROV-1 = system: IGROV-1
K562 = system: K562
KM12 = system: KM12
LOX IMVI = system: LOX IMVI
M14 = system: M14
MCF7 = system: MCF7
MDA-MB-231 = system: MDA-MB-231
MDA-MB-435 = system: MDA-MB-435
MDA-N = system: MDA-N
MOLT-4 = system: MOLT-4
NCI-H226 = system: NCI-H226
NCI-H23 = system: NCI-H23
NCI-H460 = system: NCI-H460
NCI/ADR-RES = system: NCI/ADR-RES
OVCAR-3 = system: OVCAR-3
OVCAR-5 = system: OVCAR-5
OVCAR-8 = system: OVCAR-8
PC-3 = system: PC-3
RPMI-8226 = system: RPMI-8226
SF-268 = system: SF-268
SF-295 = system: SF-295
SF-539 = system: SF-539
SK-MEL-28 = system: SK-MEL-28
SK-MEL-2 = system: SK-MEL-2
SK-MEL-5 = system: SK-MEL-5
SK-OV-3 = system: SK-OV-3
SN12C = system: SN12C
SNB-19 = system: SNB-19
SNB-75 = system: SNB-75
SR = system: SR
SW-620 = system: SW-620
T47D = system: T47D
TK-10 = system: TK-10
U-251 = system: U-251
UACC-257 = system: UACC-257
UACC-62 = system: UACC-62
UO-31 = system: UO-31
HCC 2998 = system: HCC 2998
Malme-3M = system: Malme-3M
NCI-H522 = system: NCI-H522
OVCAR-4 = system: OVCAR-4
RXF 393 = system: RXF 393

O=c1n(/N=C/c2ccccc2)c(=O)n2n1C1C=CC2CC1
GI50 (786-0): > 100 µM (inactive)
GI50 (A498): > 100 µM (inactive)
GI50 (A549): > 100 µM (inactive)
GI50 (ACHN): > 100 µM (inactive)
GI50 (BT-549): > 100 µM (inactive)
GI50 (CAKI-1): > 100 µM (inactive)
GI50 (CCRF-CEM): > 100 µM (inactive)
GI50 (COLO 205): > 100 µM (inactive)
GI50 (DU-145): > 100 µM (inactive)
GI50 (EKVX): > 100 µM (inactive)
GI50 (HCT-116): > 100 µM (inactive)
GI50 (HCT-15): > 100 µM
GI50 (HL-60): > 100 µM (inactive)
GI50 (HOP-62): > 100 µM (inactive)
GI50 (HOP-92): > 100 µM (inactive)
GI50 (HT-29): > 100 µM (inactive)
GI50 (Hs-578T): > 100 µM (inactive)
GI50 (IGROV-1): > 100 µM (inactive)
GI50 (K562): > 100 µM (inactive)
GI50 (KM12): > 100 µM (inactive)
GI50 (LOX IMVI): > 100 µM (inactive)
GI50 (M14): > 100 µM (inactive)
GI50 (MCF7): > 100 µM (inactive)
GI50 (MDA-MB-231): > 100 µM (inactive)
GI50 (MDA-MB-435): > 100 µM (inactive)
GI50 (MDA-N): > 100 µM (inactive)
GI50 (MOLT-4): > 100 µM (inactive)
GI50 (NCI-H226): > 100 µM (inactive)
GI50 (NCI-H23): > 100 µM (inactive)
GI50 (NCI-H460): > 100 µM (inactive)
GI50 (NCI/ADR-RES): > 100 µM (inactive)
GI50 (OVCAR-3): > 100 µM (inactive)
GI50 (OVCAR-5): > 100 µM (inactive)
GI50 (OVCAR-8): > 100 µM (inactive)
GI50 (PC-3): > 100 µM (inactive)
GI50 (RPMI-8226): > 100 µM (inactive)
GI50 (SF-268): > 100 µM (inactive)
GI50 (SF-295): > 100 µM (inactive)
GI50 (SF-539): > 100 µM (inactive)
GI50 (SK-MEL-28): > 100 µM (inactive)
GI50 (SK-MEL-2): > 100 µM (inactive)
GI50 (SK-MEL-5): > 100 µM (inactive)
GI50 (SK-OV-3): > 100 µM (inactive)
GI50 (SN12C): > 100 µM (inactive)
GI50 (SNB-19): > 100 µM (inactive)
GI50 (SNB-75): > 100 µM (inactive)
GI50 (SR): > 100 µM (inactive)
GI50 (SW-620): > 100 µM (inactive)
GI50 (T47D): > 100 µM (inactive)
GI50 (TK-10): > 100 µM (inactive)
GI50 (U-251): > 100 µM (inactive)
GI50 (UACC-257): > 100 µM (inactive)
GI50 (UACC-62): > 100 µM (inactive)
GI50 (UO-31): > 100 µM (inactive)

COc1ccc(C2CC(c3c(O)ccc4ccccc34)=NN2C(C)=O)cc1OC (stereo not given)
GI50 (786-0): 33.3 µM (inactive)
GI50 (A498): 24.3 µM (inactive)
GI50 (A549): 24.9 µM (inactive)
GI50 (ACHN): 35.4 µM (inactive)
GI50 (BT-549): 17 µM (inactive)
GI50 (CAKI-1): 36.5 µM (inactive)
GI50 (CCRF-CEM): 12.6 µM (inactive)
GI50 (COLO 205): 17 µM (inactive)
GI50 (DU-145): 36.2 µM (inactive)
GI50 (HCC 2998): 23.7 µM (inactive)
GI50 (HCT-116): 15.3 µM (inactive)
GI50 (HCT-15): 30.1 µM
GI50 (HOP-62): 26.9 µM (inactive)
GI50 (HOP-92): 27.8 µM (inactive)
GI50 (HT-29): 40 µM (inactive)
GI50 (Hs-578T): 36.9 µM (inactive)
GI50 (IGROV-1): 38.7 µM (inactive)
GI50 (K562): 13.7 µM (inactive)
GI50 (KM12): 34.2 µM (inactive)
GI50 (M14): 24.1 µM (inactive)
GI50 (MCF7): 23.7 µM (inactive)
GI50 (MDA-MB-231): 18.5 µM (inactive)
GI50 (MDA-MB-435): 21.3 µM (inactive)
GI50 (MDA-N): 20.7 µM (inactive)
GI50 (MOLT-4): 19.3 µM (inactive)
GI50 (Malme-3M): 31 µM (inactive)
GI50 (NCI-H226): 36.2 µM (inactive)
GI50 (NCI-H23): 23.4 µM (inactive)
GI50 (NCI-H460): 28.1 µM (inactive)
GI50 (NCI-H522): 31.7 µM (inactive)
GI50 (NCI/ADR-RES): 26.5 µM (inactive)
GI50 (OVCAR-3): 23.2 µM (inactive)
GI50 (OVCAR-4): 44.3 µM (inactive)
GI50 (OVCAR-5): 40.6 µM (inactive)
GI50 (OVCAR-8): 34.4 µM (inactive)
GI50 (PC-3): 23.6 µM (inactive)
GI50 (RPMI-8226): 12 µM (inactive)
GI50 (RXF 393): 24.1 µM (inactive)
GI50 (SF-268): 31.4 µM (inactive)
GI50 (SF-295): 37.4 µM (inactive)
GI50 (SF-539): 18.7 µM (inactive)
GI50 (SK-MEL-28): 28.8 µM (inactive)
GI50 (SK-MEL-2): 19.3 µM (inactive)
GI50 (SK-MEL-5): 21.9 µM (inactive)
GI50 (SK-OV-3): 57.8 µM (inactive)
GI50 (SN12C): 26.5 µM (inactive)
GI50 (SNB-75): 19.8 µM (inactive)
GI50 (SR): 14.2 µM (inactive)
GI50 (SW-620): 32.9 µM (inactive)
GI50 (T47D): 34.6 µM (inactive)
GI50 (TK-10): 53.3 µM (inactive)
GI50 (U-251): 29.6 µM (inactive)
GI50 (UACC-257): 34.8 µM (inactive)
GI50 (UACC-62): 15.1 µM (inactive)
GI50 (UO-31): 23.1 µM (inactive)

CC(=O)OCCn1c(Cc2ccc([N+](=O)[O-])cc2)nn(C(C)=O)c1=O
GI50 (786-0): > 100 µM (inactive)
GI50 (A498): > 100 µM (inactive)
GI50 (A549): > 100 µM (inactive)
GI50 (ACHN): > 100 µM (inactive)
GI50 (BT-549): > 100 µM (inactive)
GI50 (CAKI-1): > 100 µM (inactive)
GI50 (CCRF-CEM): > 100 µM (inactive)
GI50 (COLO 205): > 100 µM (inactive)
GI50 (DU-145): > 100 µM (inactive)
GI50 (EKVX): > 100 µM (inactive)
GI50 (HCC 2998): > 100 µM (inactive)
GI50 (HCT-116): > 100 µM (inactive)
GI50 (HCT-15): > 100 µM
GI50 (HL-60): > 100 µM (inactive)
GI50 (HOP-92): > 100 µM (inactive)
GI50 (HT-29): > 100 µM (inactive)
GI50 (Hs-578T): > 100 µM (inactive)
GI50 (IGROV-1): > 100 µM (inactive)
GI50 (K562): > 100 µM (inactive)
GI50 (KM12): > 100 µM (inactive)
GI50 (LOX IMVI): > 100 µM (inactive)
GI50 (M14): > 100 µM (inactive)
GI50 (MCF7): > 100 µM (inactive)
GI50 (MDA-MB-231): > 100 µM (inactive)
GI50 (MDA-MB-435): > 100 µM (inactive)
GI50 (MDA-N): > 100 µM (inactive)
GI50 (MOLT-4): > 100 µM (inactive)
GI50 (Malme-3M): > 100 µM (inactive)
GI50 (NCI-H226): > 100 µM (inactive)
GI50 (NCI-H23): > 100 µM (inactive)
GI50 (NCI-H460): > 100 µM (inactive)
GI50 (NCI-H522): > 100 µM (inactive)
GI50 (NCI/ADR-RES): > 100 µM (inactive)
GI50 (OVCAR-3): > 100 µM (inactive)
GI50 (OVCAR-4): > 100 µM (inactive)
GI50 (OVCAR-5): > 100 µM (inactive)
GI50 (OVCAR-8): > 100 µM (inactive)
GI50 (PC-3): > 100 µM (inactive)
GI50 (RPMI-8226): > 100 µM (inactive)
GI50 (SF-268): > 100 µM (inactive)
GI50 (SF-295): > 100 µM (inactive)
GI50 (SF-539): > 100 µM (inactive)
GI50 (SK-MEL-28): > 100 µM (inactive)
GI50 (SK-MEL-2): > 100 µM (inactive)
GI50 (SK-MEL-5): > 100 µM (inactive)
GI50 (SK-OV-3): > 100 µM (inactive)
GI50 (SN12C): > 100 µM (inactive)
GI50 (SNB-19): > 100 µM (inactive)
GI50 (SR): > 100 µM (inactive)
GI50 (SW-620): > 100 µM (inactive)
GI50 (T47D): > 100 µM (inactive)
GI50 (TK-10): > 100 µM (inactive)
GI50 (U-251): > 100 µM (inactive)
GI50 (UACC-257): > 100 µM (inactive)
GI50 (UACC-62): > 100 µM (inactive)
GI50 (UO-31): > 100 µM (inactive)
